Assay results reported in EP4799624A2 (priority 2021, dated 2023).
Values after ≈ are worked out from the molar mass of the structure shown. Read-outs that look alike come from different tables or passages of the source.

How the values were obtained:
[1] = test system: SARS-CoV-2; settings: for activity in the HeLa-ACE2 cell-based SARS-CoV-2 assay: 35 ActivPred compounds tested; for Nh (Hill) coefficient: dose curves fitted with the four parameter Hill Equation
[2] = in vivo, cited from earlier work
[3] = test system: SARS-CoV-2; settings: Day 4, cited from earlier work
[4] = human liver slices and microsomes; cited from earlier work
[5] = test system: SARS-CoV-2; experiment: microbe, parasite or virus in culture
[6] = test system: A/WSN/33; experiment: Influenza antiviral assay (IF-based) in A549 cells; type: cell-based, H1N1 influenza A virus; settings: Influenza A virus, A549, 24 h
[7] = for adverse reactions / clinical signs: PO 50 and 250 mg/kg, single and 5 days, female 129S1 mice; for Mean: mean of 3 mice (± SD in Table 16); for AUC∞: extrapolated to ∞
[8] = in vivo; settings: rat, po, 1000 mg/kg
[9] = range for all doses (10-200 mg), human plasma, cited from earlier work
[10] = rat and monkey studies; cited from earlier work
[11] = test system: SARS-CoV-2/WA1; type: cell-based, SARS-CoV-2 isolate USA-WA1/2020; settings: Severe acute respiratory syndrome coronavirus 2, HeLa-ACE2, read-out: SARS-CoV-2 IC50 value
[12] = single oral doses 1-200 mg; cited from earlier work
[13] = test system: SARS-CoV-2; settings: cited from earlier work
[14] = values compared in Example 2; cited from earlier work
[15] = rat, in vivo
[16] = test system: COVID-19; settings: ReFRAME study A00473; cited from earlier work
[17] = ReFRAME study A00511; cited from earlier work
[18] = test system: SARS-CoV-2; settings: same methods as used in this study; cited from earlier work
[19] = test system: Ebola VLP entry; settings: cited from earlier work
[20] = Severe acute respiratory syndrome coronavirus 2, HeLa-ACE2, 24 h
[21] = lung, 250 mg/kg PO five consecutive days (Group 2, MD)
[22] = plasma, 50 mg/kg PO five consecutive days (Group 1, MD)
[23] = plasma, 50 mg/kg PO single dose (Group 1, SD)
[24] = plasma, 50 mg/kg PO single dose (Group 1, SD), 50 mg/kg
[25] = plasma, 250 mg/kg PO five consecutive days (Group 2, MD)
[26] = plasma, 250 mg/kg PO single dose (Group 2, SD)

## Cc1c2c(nn1C)CSCc1cc(n(C)n1)CSc1cc(c3ccccc3c1)OCCCc1c(C(=O)O)n(C)c3c-2c(Cl)ccc13 [AZD-5991]
[1]
  activity in the HeLa-ACE2 cell-based SARS-CoV-2 assay: demonstrated activity

## Cc1c(-c2ccc(O)cc2)n(Cc2ccc(OCCN3CCCCCC3)cc2)c2ccc(O)cc12 [Bazedoxifene, reference compound]
[2]; human
  dose safely tolerated: 20 mg/day
[2]; rat
  dose safely tolerated: 100 mg/kg/day

## CNCc1ccc(-c2cc(-c3nc(-c4ccc(S(=O)(=O)C(C)C)cc4)cnc3N)on2)cc1 [Berzosertib, reference compound]
[1]
  activity in the HeLa-ACE2 cell-based SARS-CoV-2 assay: demonstrated activity
  Nh (Hill) coefficient: 1.485

## CC(C)(C)[C@H](NC(=O)C(F)(F)F)C(=O)N1C[C@H]2[C@@H]([C@H]1C(=O)N[C@H](C#N)C[C@@H]1CCNC1=O)C2(C)C [Nirmatrelvir]
[3]; 300 mg/kg
  log reduction in viral load: 1.4 log
[3]; 1000 mg/kg BID
  reduction in viral load: 1.91 log10 CCID50/mL
[3]; 1000 mg/kg
  log reduction in viral load: 1.9 log

## COc1cc(Cl)cc(C(C)Nc2cc(N3CCNCC3)ccc2S(C)(=O)=O)c1OC.Cl (stereo not drawn) [PRX-07034]
[1]
  activity in the HeLa-ACE2 cell-based SARS-CoV-2 assay: demonstrated activity

## Cc1c(-c2ccc(O)cc2)n(Cc2ccc(OCCN3CCCCC3)cc2)c2ccc(O)cc12 [Pipendoxifene, 2-(4-hydroxyphenyl)-3-methyl-1-[[4-(2-piperidin-1-ylethoxy)phenyl]methyl]indol-5-ol]
[2]; human
  dose safely tolerated: up to 200 mg/daily
[2]; mouse
  dose safely tolerated: at least 20 mg/kg/day
[4]
  primary human metabolite: the same indole glucuronide as found in the preclinical models
[5]; Severe acute respiratory syndrome coronavirus 2, HeLa-ACE2
  EC90: 14.3 µM
[5]; [20]
  EC10: 5.01 µM
  EC50: < 9.6 µM
[5]; Severe acute respiratory syndrome coronavirus 2, HeLa-ACE2, calculated with the Hill equation (Equation I) from nH 4 and EC10
  EC90: 15 µM
[5]; Severe acute respiratory syndrome coronavirus 2, HeLa-ACE2, read-out: EC90 range, range from Equations I and II
  EC90: 14.3 to 15 µM
[6]
  IC50: 7.49 µM
[7]; Group 2, MD (multiple, 5-day, dose) 250 mg/kg oral, 8.0 hr
  Average plasma concentration: 575 ± 194 ng/mL
[7]
  adverse reactions / clinical signs: no adverse events at doses up to 250mg/kg
[7]; listed as pipendoxifene
  adverse reactions / clinical signs: No adverse reactions were observed
[7]; lung tissue, individual mice, 50 mg/kg PO single dose, 8.0 hr, 50 mg/kg, 480 min
  Conc.: 7840 ng/g
[7]; lung tissue, 50 mg/kg PO five consecutive days, 8.0 hr, 50 mg/kg, 480 min
  Mean: 5613 ± 1602 ng/g
[7]; lung tissue, 50 mg/kg PO single dose, 4.0 hr, 50 mg/kg, 240 min
  Mean: 8310 ± 630 ng/g
[7]; lung tissue, 250 mg/kg PO five consecutive days, 4.0 hr, 250 mg/kg, 240 min
  Mean: 39000 ± 15321 ng/g
[7]; lung tissue, 250 mg/kg PO single dose, 8.0 hr, 250 mg/kg, 480 min
  Mean: 24733 ± 17321 ng/g
[7]; lung, 50 mg/kg PO five consecutive days (Group 1, MD)
  tmax: 8.0 h
[7]; [21]
  MRTlast: 7.22 h
  tmax: 4.0 h
[7]; lung, 250 mg/kg PO single dose (Group 2, SD)
  tmax: 8.0 h
[7]; mouse, in vivo, po
  plasma t1/2: 2.36 to 3.96 h
[7]; [22]
  MRTlast: 7.10 h
  t1/2: 2.58 h
  tmax: 6.0 h
  AUC∞: 1396 ng·h/mL
[7]; plasma, 50 mg/kg PO five consecutive days (Group 1, MD), 50 mg/kg
  AUClast (hr·ng/mL) ± SE: 1391 ± 55 ng·h/mL
[7]; [23]
  MRTlast: 6.95 h
  t1/2: 2.36 h
  tmax: 2.0 h
  AUC∞: 1602 ng·h/mL
[7]; [24]
  AUClast (hr·ng/mL) ± SE: 1600 ± 115 ng·h/mL
  Cmax (ng/mL) ± SE: 179 ± 21 ng/mL
[7]; [25]
  t1/2: 2.52 h
  tmax: 6.0 h
  AUC∞: 11664 ng·h/mL
[7]; plasma, 250 mg/kg PO five consecutive days (Group 2, MD), 250 mg/kg
  AUClast (hr·ng/mL) ± SE: 11628 ± 1191 ng·h/mL
[7]; [26]
  MRTlast: 8.86 h
  t1/2: 3.96 h
  tmax: 6.0 h
  AUC∞: 10461 ng·h/mL
[7]; plasma, 250 mg/kg PO single dose (Group 2, SD), 250 mg/kg
  Cmax (ng/mL) ± SE: 1020 ± 693 ng/mL
[7]; plasma, 50 mg/kg PO five consecutive days, 1.0 hr, 50 mg/kg, 60 min
  Mean: 56.0 ± 20.7 ng/mL
[7]; plasma, 50 mg/kg PO single dose, 2.0 hr, 50 mg/kg, 120 min
  Mean: 179 ± 37 ng/mL
[7]; plasma, 250 mg/kg PO five consecutive days, 8.0 hr, 250 mg/kg, 480 min
  Mean: 575 ± 194 ng/mL
[7]; plasma, 250 mg/kg PO single dose, 6.0 hr, 250 mg/kg, 360 min
  Mean: 1020 ± 1200 ng/mL
[8]
  concentration at 6 h: 501 ng/mL
[9]
  mean terminal t1/2: 15.8 to 27.3 h
[9]; listed as pipendoxifene
  mean terminal t1/2: 15.8 to 27.3 h
[10]
  primary metabolite: primarily metabolized to an indole glucuronide
[11]
  IC50: 0.328 µg/mL (≈ 0.718 µM)
[12]
  tolerability: well tolerated with only mild transient adverse events observed at all doses
[1]
  EC50: 8.24 µM
  activity in the HeLa-ACE2 cell-based SARS-CoV-2 assay: demonstrated activity
  Nh (Hill) coefficient: 4
[1]; listed as pipendoxifene
  EC50: 8.42 µM
[13]
  result in SARS-CoV-2/HeLa-ACE2 HCI assay - % infected cells: INACTIVE
[14]
  t ½: 15.8 to 27.3 h
[15]
  Cmax: 311 1 42 ng/mL
  Lung C24h exceeding the IC50 value: 5.4 fold
[15]; po
  plasma t1/2: 4.71 to 6.06 h
[15]; po, 250 mg/kg
  AUClast ± SE: 3515 ± 980 ng·h/mL
[15]; po, 750 mg/kg
  AUClast ± SE: 5260 ± 1970 ng·h/mL
[16]
  result in COVID-19 Cytopathic Effect (CPE) Assay: INACTIVE
[17]
  result in SARS CoV-2 CPE Cytotoxicity Assay: INACTIVE

## CCC(CC)COC(=O)[C@H](C)N[P@](=O)(OC[C@H]1O[C@@](C#N)(c2ccc3c(N)ncnn23)[C@H](O)[C@@H]1O)Oc1ccccc1 [Remdesivir, reference compound]
[5]; [20]
  EC50: 0.13 µM
[1]
  increase in EC50 from MOI=1 to MOI=26: 2.7 fold
[14]
  t ½: 1 h

## Cc1cccc(/C=N/Nc2cc(N3CCOCC3)nc(OCCc3ccccn3)n2)c1 [apilimod, reference compound]
[5]; Severe acute respiratory syndrome coronavirus 2, HeLa-ACE2, read-out: maximal efficacy
  Emax: 85 to 90%
[1]
  increase in EC50 from MOI=1 to MOI=26: 3.7 fold

## COc1ccc(C[C@H](N)C(=O)N[C@H]2[C@@H](O)[C@H](n3cnc4c(N(C)C)ncnc43)O[C@@H]2CO)cc1 [puromycin, reference compound]
[5]; Severe acute respiratory syndrome coronavirus 2, HeLa-ACE2, […], average ± sem of 5 independent experiments
  EC50: 0.547 ± 0.027 µM

## O=C(c1ccc(OCCN2CCCCC2)cc1)c1c(-c2ccc(O)cc2)sc2cc(O)ccc12 [raloxifene]
[18]
  EC50: 4.13 µM
[19]; Ebola VLP entry
  SI: > 10
[19]; speculated active compounds, read-out: IC50, block of Ebola VLP entry in vitro
  IC50: < 10 µM

## Nc1ncnc2c1nc(Cl)n2[C@@H]1O[C@@H]2COP(=O)(O)O[C@H]2[C@H]1O [tocladesine]
[1]
  activity in the HeLa-ACE2 cell-based SARS-CoV-2 assay: demonstrated activity
